Experimental data as given in US8541460B2, “PDK-1/Akt signaling inhibitors” (The Ohio State University, priority 2003, dated 2013).

What was measured:
DU-145 = assay: NCI DTP cell line screen (SRB), Prostate Cancer; format: cell-based
Protocol: (§1) Screening of compounds 70 and 71 against several cancer cell lines The human tumor cell lines of the cancer screening panel are grown in RPMI 1640 medium containing 5% fetal bovine serum and 2 mM L-glutamine. For a typical screening experiment, cells are inoculated into 96 well microtiter plates in 100 μL at plating densities ranging from 5,000 to 40,000 cells/well depending on the doubling time of individual cell lines. After cell inoculation, the microtiter plates are incubated at 37° C., 5% CO2, 95% air and 100% relative humidity for 24 h prior to addition of experimental drugs.
(§2) After 24 h, two plates of each cell line are fixed in situ with TCA, to represent a measurement of the cell population for each cell line at the time of drug addition (Tz). Experimental drugs are solubilized in dimethyl sulfoxide at 400-fold the desired final maximum test concentration and stored frozen prior to use. At the time of drug addition, an aliquot of frozen concentrate is thawed and diluted to twice the desired final maximum test concentration with complete medium containing 50 μg/ml gentamicin. Additional four, 10-fold or ½ log serial dilutions are made to provide a total of five drug concentrations plus control. Aliquots of 100 μl of these different drug dilutions are added to the appropriate microtiter wells already containing 100 μl of medium, resulting in the required final drug concentrations.
(§3) Following drug addition, the plates are incubated for an additional 48 h at 37° C., 5% CO2, 95% air, and 100% relative humidity. For adherent cells, the assay is terminated by the addition of cold TCA. Cells are fixed in situ by the gentle addition of 50 μl of cold 50% (w/v) TCA (final concentration, 10% TCA) and incubated for 60 minutes at 4° C. The supernatant is discarded, and the plates are washed five times with tap water and air dried. Sulforhodamine B (SRB) solution (100 μl) at 0.4% (w/v) in 1% acetic acid is added to each well, and plates are incubated for 10 minutes at room temperature. After staining, unbound dye is removed by washing five times with 1% acetic acid and the plates are air dried. Bound stain is subsequently solubilized with 10 mM trizma base, and the absorbance is read on an automated plate reader at a wavelength of 515 nm. For suspension cells, the methodology is the same except that the assay is terminated by fixing settled cells at the bottom of the wells by gently adding 50 μl of 80% TCA (final concentration, 16% TCA). Using the seven absorbance measurements [time zero, (Tz), control growth, (C), and test growth in the presence of drug at the five concentration levels (Ti)], the percentage growth is calculated at each of the drug concentrations levels. Percentage growth inhibition is calculated as: [(Ti−Tz)/(C−Tz)]×100 for concentrations for which Ti>/=Tz [(Ti−Tz)/Tz]×100 for concentrations for which Ti<Tz
(§4) Three dose response parameters are calculated for each experimental agent. […] The drug concentration resulting in total growth inhibition (TGI) is calculated from Ti=Tz. […] Values are calculated for each of these three parameters if the level of activity is reached; however, if the effect is not reached or is exceeded, the value for that parameter is expressed as greater or less than the maximum or minimum concentration tested.
(§5) The methods described were used to test compounds 70 and 71 on a panel of sixty cell lines under a screening service provided by the Developmental Therapeutics Program at the National Institutes of Health. Shown in FIG. 1C are 1, RPMI-8226 leukemia cells; 2; NCI-H322M non-small cell lung cancer cells; 3, HT29 colon cancer cells; 4, U251 CNS cancer cells; 5, SK-MEL-28 melanoma cancer cells; 6, SK-OV-3 ovarian cancer cells; 7, RXF 393 renal cancer cells; 8, PC-3 prostate cancer cells; 9, MDA-MB-231 breast cancer cells.

PC-3 = assay: NCI DTP cell line screen (SRB), Prostate Cancer; format: cell-based
Protocol: as §1, §2, §3, §4, §5

PC-3 cells = assay: Apoptosis analysis (DNA fragmentation ELISA, PARP cleavage); format: cell-based, human; conditions: 1% FBS-containing medium
Protocol: Apoptosis analysis Two methods were used to assess drug-induced apoptotic cell death: detection of DNA fragmentation by the Cell Death Detection ELISA kit (Roche Diagnostics. Mannheim, Germany) and Western blot analysis of poly-(ADP-ribose)polymerase (PARP) cleavage. […] In brief, 4×10^5 PC-3 cells were cultured in a T-25 flask for 24 h before treatment. Cells were treated with the DMSO vehicle or the test agent at the indicated concentrations for 6-24 h, collected, and cell lysates equivalent to 2×10^3 PC-3 cells were used in the ELISA. For the PARP cleavage assay, drug-treated cells were collected 4-8 h post-treatment, washed with ice-cold PBS, and resuspended in lysis buffer containing 20 mM Tris-HCl, pH 8, 137 mM NaCl, 1 mM CaCl2, 10% glycerol, 1% Nonidet P-40, 0.5% deoxycholate, 0.1% SDS, 100 μM 4-(2-aminoethyl)benzenesulfonyl fluoride, leupeptin at 10 μg/mL, and aprotinin at 10 μg/mL. Soluble cell lysates were collected after centrifugation at 10,000 g for 5 min. Equivalent amounts of proteins (60-100 μg) from each lysate were resolved in 8% SDS-polyacrylamide gels. Bands were transferred to nitrocellulose membranes, and analyzed by immunoblotting with anti-PARP antibody.

COX-2 = COX-2 (Homo sapiens, UniProt P35354); assay: COX-2 inhibitory activity; format: biochemical; conditions: concentrations up to 50 μM
COX-2, sequence (P35354 18-604): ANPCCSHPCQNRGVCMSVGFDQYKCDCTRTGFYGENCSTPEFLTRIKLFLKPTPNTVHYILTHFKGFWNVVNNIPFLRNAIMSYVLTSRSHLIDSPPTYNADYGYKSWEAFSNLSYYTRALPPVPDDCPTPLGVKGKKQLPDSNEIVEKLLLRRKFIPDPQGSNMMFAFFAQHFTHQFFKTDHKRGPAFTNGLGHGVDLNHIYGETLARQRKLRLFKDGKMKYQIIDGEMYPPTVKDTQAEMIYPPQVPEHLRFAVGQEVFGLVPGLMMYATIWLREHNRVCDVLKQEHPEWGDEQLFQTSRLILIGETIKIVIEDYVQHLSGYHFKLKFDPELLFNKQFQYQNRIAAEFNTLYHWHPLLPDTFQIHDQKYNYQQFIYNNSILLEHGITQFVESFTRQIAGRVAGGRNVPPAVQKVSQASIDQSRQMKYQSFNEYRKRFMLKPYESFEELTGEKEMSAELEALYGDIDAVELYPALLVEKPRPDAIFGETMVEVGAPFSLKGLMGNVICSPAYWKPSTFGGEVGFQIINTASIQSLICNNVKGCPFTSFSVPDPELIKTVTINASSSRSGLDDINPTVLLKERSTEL

| SMILES | TGI (DU-145) | Percent Growth (DU-145; Log10 Concentration −4.0) [%] | Percent Growth (DU-145; Log10 Concentration −5.0) [%] | Percent Growth (DU-145; Log10 Concentration −6.0) [%] | Percent Growth (DU-145; Log10 Concentration −7.0) [%] | Percent Growth (DU-145; Log10 Concentration −8.0) [%] | TGI (PC-3) | Percent Growth (PC-3; Log10 Concentration −4.0) [%] | Percent Growth (PC-3; Log10 Concentration −5.0) [%] | Percent Growth (PC-3; Log10 Concentration −6.0) [%] | Percent Growth (PC-3; Log10 Concentration −7.0) [%] | Percent Growth (PC-3; Log10 Concentration −8.0) [%] | apoptotic death in PC-3 cells (DNA fragmentation and PARP cleavage) (PC-3 cells) | COX-2 inhibitory activity (COX-2) | other results |
| --- | --- | --- | --- | --- | --- | --- | --- | --- | --- | --- | --- | --- | --- | --- | --- |
| NCC(=O)Nc1ccc(-n2nc(C(F)(F)F)cc2-c2ccc3c(ccc4ccccc43)c2)cc1 [Compound 70, 2-Amino-N-{4-[5-(2-phenanthrenyl)-3-(trifluoromethyl)-1H-pyrazol-1-yl]-phenyl}-acetamide] | 3.47E−06 | −60 | −76 | 90 | 109 | 105 | 2.38E−06 | −55 | −77 | 47 | 69 | 89 | induced apoptotic death in PC-3 cells in 1% FBS-containing medium in a dose-dependent manner | nor was any measurable COX-2 inhibitory activity detected |  |
| N=C(N)Nc1ccc(-n2nc(C(F)(F)F)cc2-c2ccc3c(ccc4ccccc43)c2)cc1 [Compound 71, 4-[5-(2-Phenanthrenyl)-3-(trifluoromethyl)-1H-pyrazol-1-yl]-phenyl-guanidine] | 2.89E−06 | −100 | −100 | 85 | 87 | 72 | 2.67E−06 | −26 | −100 | 75 | 73 | 75 | induced apoptotic death in PC-3 cells in 1% FBS-containing medium in a dose-dependent manner | nor was any measurable COX-2 inhibitory activity detected | GI50 (DU-145): 1550 nM; Mean Optical Densities (DU-145; Log10 Concentration −4.0): −0.019; Mean Optical Densities (DU-145; Log10 Concentration −5.0): −0.074; Mean Optical Densities (DU-145; Log10 Concentration −6.0): 0.760; Mean Optical Densities (DU-145; Log10 Concentration −7.0): 0.767; Mean Optical Densities (DU-145; Log10 Concentration −8.0): 0.694; CC50 (DU-145; read-out: LC50 (the source's name)): 5370 nM; GI50 (PC-3): 1380 nM; Mean Optical Densities (PC-3; Log10 Concentration −4.0): 0.179; Mean Optical Densities (PC-3; Log10 Concentration −5.0): −0.022; Mean Optical Densities (PC-3; Log10 Concentration −6.0): 0.857; Mean Optical Densities (PC-3; Log10 Concentration −7.0): 0.846; Mean Optical Densities (PC-3; Log10 Concentration −8.0): 0.862 |
